# Data: patent publication US8133506B2, “Drug delivery systems comprising weakly basic drugs and organic acids” (Aptalis Pharmatech, Inc., priority 2008, dated 2012)
# Where a name gives a salt, the structure may show the parent alone. Read-outs that look alike come from different tables or passages of the source.
# Assays:
# [1] = cited from earlier work
# [2] = cited from earlier work; remark: listed apart in the source
# [3] = physchem
# [4] = physchem; remark: listed apart in the source
# [5] = pH-dependent solubility in aqueous buffer
# [6] = Solubility in organic acid buffers (fumaric, aspartic, glutamic acid)
# [7] = pH 6.8, aqueous buffer, solubility
smiles,measurement,setting,value
"Cc1nccn1CC1CCc2c(c3ccccc3n2C)C1=O (stereo not drawn) [Ondansetron HCl, ondansetron hydrochloride]",solubility,[1]; low pH gastric fluids,freely soluble
same,solubility,[1]; pH >6,practically insoluble
same,elimination half-life,[2]; average,approximately 3.8±1 hrs
same,absorption from the gastrointestinal tract,[2]; in vivo,well absorbed
same,solubility,"[3]; pH 2.2, aqueous buffer, Solubility of Ondansetron HCl in Aqueous Buffer",23.3 mg/mL
same,solubility,"[3]; pH 3.2, aqueous buffer, Solubility of Ondansetron HCl in Aqueous Buffer",25.7 mg/mL
same,solubility,"[3]; pH 4.2, aqueous buffer, Solubility of Ondansetron HCl in Aqueous Buffer",10.9 mg/mL
same,solubility,"[3]; pH 5, aqueous buffer, Solubility of Ondansetron HCl in Aqueous Buffer",3.6 mg/mL
same,solubility,"[3]; pH 5.6, aqueous buffer, Solubility of Ondansetron HCl in Aqueous Buffer",1.7 mg/mL
same,solubility,"[3]; pH 6.2, aqueous buffer, Solubility of Ondansetron HCl in Aqueous Buffer",0.4 mg/mL
same,solubility,"[3]; pH 6.8, aqueous buffer, Solubility of Ondansetron HCl in Aqueous Buffer",0.036 mg/mL
same,solubility,[3]; [7],< 0.05 mg/mL
same,solubility,"[3]; pH 7, aqueous buffer, Solubility of Ondansetron HCl in Aqueous Buffer",0.025 mg/mL
same,solubility,"[4]; pH 2.01, aqueous buffer",26.9 mg/mL
same,solubility,"[4]; pH 2.14, aqueous buffer",27 mg/mL
same,solubility,"[4]; pH 2.4, aqueous buffer",26.1 mg/mL
same,solubility,"[4]; pH 2.75, aqueous buffer",26.2 mg/mL
same,solubility,"[4]; pH 3.49, aqueous buffer",26 mg/mL
same,solubility,"[4]; pH 4.05, aqueous buffer",26.1 mg/mL
COc1cc(C(C)=O)ccc1OCCCN1CCC(c2noc3cc(F)ccc23)CC1 [Iloperidone],solubility,"[3]; pH 1.2, simulated gastric fluid, Solubility of Iloperidone in Aqueous Buffer",3.9 mg/mL
same,solubility,"[3]; pH 3.01, aqueous buffer, Solubility of Iloperidone in Aqueous Buffer",1.44 mg/mL
same,solubility,"[3]; pH 3.06, aqueous buffer, Solubility of Iloperidone in Aqueous Buffer",0.917 mg/mL
same,solubility,"[3]; pH 4.08, aqueous buffer, Solubility of Iloperidone in Aqueous Buffer",0.681 mg/mL
same,solubility,"[3]; pH 4.46, aqueous buffer, Solubility of Iloperidone in Aqueous Buffer",0.586 mg/mL
same,solubility,"[3]; pH 5.09, aqueous buffer, Solubility of Iloperidone in Aqueous Buffer",0.341 mg/mL
same,solubility,"[3]; pH 6.11, aqueous buffer, Solubility of Iloperidone in Aqueous Buffer",0.117 mg/mL
same,solubility,[3]; [7],~0.03 mg/mL
same,solubility,"[3]; pH 7.02, aqueous buffer, Solubility of Iloperidone in Aqueous Buffer",0.011 mg/mL
same,solubility,"[3]; simulated gastric fluid, solubility",~3 mg/mL
O=C1CN=C(c2ccccc2Cl)c2cc([N+](=O)[O-])ccc2N1 [Clonazepam],solubility,"[5]; pH 2.2, aqueous buffer",0.0114 mg/mL
same,solubility,"[5]; pH 2.8, aqueous buffer",0.0102 mg/mL
same,solubility,"[5]; pH 3.2, aqueous buffer",0.0096 mg/mL
same,solubility,"[5]; pH 3.8, aqueous buffer",0.0092 mg/mL
same,solubility,"[5]; pH 4.2, aqueous buffer",0.0091 mg/mL
same,solubility,"[5]; pH 4.8, aqueous buffer",0.0086 mg/mL
same,solubility,"[5]; pH 5.4, aqueous buffer",0.0084 mg/mL
same,solubility,"[5]; pH 6.2, aqueous buffer",0.008 mg/mL
same,solubility,[5]; physiological pHs,practically insoluble
same,solubility,"[6]; buffer at pH 2.3, higher concentration of fumaric acid",about 11.6 μg/mL
same,solubility,"[6]; buffer at pH 6.8, lower concentration of fumaric acid",~0.0069 mg/mL
same,solubility,"[6]; pH 2.3, aqueous buffer",0.0116 mg/mL
same,solubility,"[6]; pH 2.8, aqueous buffer",0.0103 mg/mL
same,solubility,"[6]; pH 3.2, aqueous buffer",0.0096 mg/mL
same,solubility,"[6]; pH 3.7, aqueous buffer",0.0098 mg/mL
same,solubility,"[6]; pH 5.5, aqueous buffer",0.29 mg/mL
